In patent US20230310356A1, “COMPOSITION FOR PREVENTING, AMELIORATING, OR TREATING BRAIN DAMAGE AND MILD COGNITIVE IMPAIRMENT COMPRISING GLUTAMINE AS EFFECTIVE COMPONENT” (INDUSTRY-ACADEMIC COOPERATION FOUNDATION GYEONGSANG …, priority 2020, published 2023):

What was measured:
[1] = test system: nNOS; assay: Double-IHC protein expression after CIS and glutamine supplementation: nNOS; type: in vivo, mouse; conditions: microglial cells in infralimbic cortex and hippocampal CA1 region; glutamine supplementation diet vs stress group
Description: (§1) Control (CTL) is a group which received normal diet (common diet with nutritional balance) without any stress, CTL+Gln group is a normal diet group supplemented with glutamine (150 mg/kg of feed) and without any stress, STR is a normal diet group under stress, and STR+Gln group is a normal diet group supplemented with glutamine (150 mg/kg of feed) under stress. The stress group (STR) was individually brought by force to a restrainer for 2 hours every day (i.e., between 2 PM and 4 PM) so that the animals are applied with chronic immobilization stress for 15 days. To determine the specific changes in the brain tissues after glutamine supplementation, double staining was carried out with a cell marker so that the proteins related to a change in ROS/RNS content (i.e., iNOS; nNOS; and p47phox and p67phox as a subunit of NOX) with cell markers are analyzed by double-IHC (immunohistochemistry). Twenty-four hours after applying the last stress, the mouse was anesthetized with avertin, and perfused with PBS (pH 7.4) and 4% formaldehyde. After that, the brain was removed, fixed, and cut to a thickness with 40 μm. […]

[2] = test system: p47phox; assay: Double-IHC protein expression after CIS and glutamine supplementation: p47phox; type: in vivo, mouse; conditions: microglial cells in infralimbic cortex and hippocampal CA1 region; glutamine supplementation diet vs stress group
Description: as §1

[3] = test system: C57BL/6 female mouse (NonTg); assay: ORT cognitive ability test in normal control mouse with glutamine diet; type: in vivo; conditions: until the 6-months old stage, 150 mg glutamine/kg diet
Description: As an animal model for cognitive ability evaluation, a 7-weeks old 3×TG-AD female mouse (8 mice. model of Alzheimer's disease) and a C57BL/6 female mouse (10 mice, control) were selected. The animals of each type were divided into 2 groups, and each group was provided with regular animal feed (i.e., normal diet, ND) or glutamine feed (Gln). The glutamine diet group was allowed to consume the feed containing 150 mg glutamine/kg diet, from 2-months old stage to the end of test (i.e., 6 to 7-months old stage). Health state of the animal was checked by measuring, once a week, the bodyweight of the animal and food intake (FIG. 7A). Cognitive ability test of the mouse as an animal model established above was determined by ORT (object recognition test). The animal was habituated in a box for 2 days. On Day 3, it was allowed to explore two identical objects for 10 minutes. On Day 4, one of the two objects was replaced with a novel object, and then, the animal was allowed to explore further for 5 minutes (FIG. 7B). The time spent by animal for exploring after approaching within 1 cm from the periphery of both objects was measured. After carrying out the calculation using Formula (3) below, DI (discrimination index) was calculated and compared to each other. In the present invention, a different novel object was employed for carrying out each test. […]

Compound: NC(=O)CC[C@H](N)C(=O)O [glutamine]
- expression amount of nNOS [1]: statistically significant decrement
- expression amount of p47phox [2]: statistically significant decrement
- cognitive ability (ORT) change caused by glutamine diet [3]: no change
